Here are results for 27 compounds from patent US10227357B2, “Compounds and methods for kinase modulation, and indications therefor” (Plexxikon Inc., priority 2012, dated 2019).

Assay [1] addresses T1, c-kit kinase (Homo sapiens, UniProt P10721).
T1 construct: The c-kit (or kinase domain thereof) is an active kinase in AlphaScreen; poly-Histidine tag (in-house protein only) (cleaved yes); host or cells: E. coli BL21(DE3)RIL, co-expressed with PTP1B
Put plainly: c-Kit biochemical assay, AlphaScreen, 10 μM ATP. The conditions noted are these: c-kit biochemical inhibitory activity; read-out: Biochemical activity (IC50 μM) Kit. The procedure, abridged:
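His-tagged c-Kit expressed in E. coli with co-expressed PTP1B (dephosphorylated), tag removed; 0.1 ng per reaction with biotinylated-peptide substrate in 50 mM HEPES pH 7.2, 5 mM MgCl2, 5 mM MnCl2, 5% DMSO, 10 μM ATP, 1 h at room temperature. Phosphorylation detected by AlphaScreen (streptavidin donor, PY20 acceptor beads); IC50 from 8-point 1:3 dilution series.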

Assay [2] has as its target T2, c-kit mutant D816V (Homo sapiens, UniProt P10721, D816V/DEL694-753).
T2 construct: residues 551-934, kinase insertion domain residues 694-753 deleted; 6x-histidine (N); made in house; host or cells: E. coli Arctic Express (DE3) RIL (Stratagene)
The experiment in a line: c-Kit mutant D816V biochemical assay, AlphaScreen. The settings on record: c-kit D816V biochemical inhibitory activity; read-out: Biochemical activity (IC50 μM) Kit D816V. The procedure, abridged:
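Purified His-tagged c-Kit D816V (E. coli-expressed) assayed in 25 mM HEPES pH 7.2 with Mg/Mn, 5% DMSO and 10 μM ATP, 30 min at room temperature, 8-point 1:3 dilutions. Phosphorylation detected by AlphaScreen with streptavidin donor and PY20 acceptor beads; IC50 from signal versus concentration.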
For orientation: Bead proximity is the source of the signal in Alpha formats.

T1 sequence (P10721 26-976): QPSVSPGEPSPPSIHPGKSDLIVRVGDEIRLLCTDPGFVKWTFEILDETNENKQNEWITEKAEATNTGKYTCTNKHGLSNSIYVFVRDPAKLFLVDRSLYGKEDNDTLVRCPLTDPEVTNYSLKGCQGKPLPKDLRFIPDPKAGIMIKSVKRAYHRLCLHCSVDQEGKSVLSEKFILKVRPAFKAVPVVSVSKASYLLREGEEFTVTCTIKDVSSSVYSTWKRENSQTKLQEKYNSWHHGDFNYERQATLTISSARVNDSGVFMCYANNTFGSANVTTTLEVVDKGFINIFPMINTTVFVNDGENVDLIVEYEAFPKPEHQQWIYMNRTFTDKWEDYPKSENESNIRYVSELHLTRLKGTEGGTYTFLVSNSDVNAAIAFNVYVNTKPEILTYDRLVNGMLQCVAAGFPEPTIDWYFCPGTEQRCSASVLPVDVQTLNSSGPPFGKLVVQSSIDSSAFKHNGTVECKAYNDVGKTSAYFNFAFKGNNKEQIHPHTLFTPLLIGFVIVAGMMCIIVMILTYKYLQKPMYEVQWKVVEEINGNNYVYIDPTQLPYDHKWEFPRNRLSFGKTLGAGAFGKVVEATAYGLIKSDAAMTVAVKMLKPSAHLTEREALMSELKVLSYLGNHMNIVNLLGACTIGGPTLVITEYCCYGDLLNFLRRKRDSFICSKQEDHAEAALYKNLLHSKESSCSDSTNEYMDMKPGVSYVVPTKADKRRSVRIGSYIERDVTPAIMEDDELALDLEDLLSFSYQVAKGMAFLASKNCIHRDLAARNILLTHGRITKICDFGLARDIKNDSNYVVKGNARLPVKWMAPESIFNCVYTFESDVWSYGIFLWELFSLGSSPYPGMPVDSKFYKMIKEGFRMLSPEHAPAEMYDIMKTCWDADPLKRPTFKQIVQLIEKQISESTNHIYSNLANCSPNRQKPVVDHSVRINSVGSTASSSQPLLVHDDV
T2 sequence (P10721 with tags, fused parts or gaps DEL694-753/D816V): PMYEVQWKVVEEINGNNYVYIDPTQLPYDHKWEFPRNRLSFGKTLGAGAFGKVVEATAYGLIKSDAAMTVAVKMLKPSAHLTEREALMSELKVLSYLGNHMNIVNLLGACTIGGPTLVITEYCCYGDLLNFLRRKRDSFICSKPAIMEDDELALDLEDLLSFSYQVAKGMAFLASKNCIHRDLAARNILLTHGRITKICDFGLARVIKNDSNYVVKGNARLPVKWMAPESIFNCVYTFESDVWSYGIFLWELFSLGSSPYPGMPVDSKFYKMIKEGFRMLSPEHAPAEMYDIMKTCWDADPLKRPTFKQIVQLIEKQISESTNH

As for `Cn1cc(-c2cc3c(N4CCC(NS(=O)(=O)c5cc6ccccc6s5)CC4)ncnc3[nH]2)cn1` [P-0470, N-[1-[6-(1-methylpyrazol-4-yl)-7H-pyrrolo[2,3-d]pyrimidin-4-yl]-4-piperidyl]benzothiophene-2-sulfonamide], the concentration for half-maximal inhibition (IC50) in assay [1] and in assay [2] was 0.0001 to 1 µM each time.
As for `Cn1cc(-c2cc3c(N4CCC(NS(=O)(=O)c5ccc(C6(C#N)CC6)cc5)CC4)ncnc3[nH]2)cn1` [P-0486, 4-(1-cyanocyclopropyl)-N-[1-[6-(1-methylpyrazol-4-yl)-7H-pyrrolo[2,3-d]pyrimidin-4-yl]-4-piperidyl]benzenesulfonamide], the IC50 in assay [1] and in assay [2] was 1 to 10 µM throughout.
With `CC(C)Oc1ccc(S(=O)(=O)NC2CCN(c3ncnc4[nH]c(-c5cnn(C)c5)cc34)CC2)cc1` [P-0488, 4-isopropoxy-N-[1-[6-(1-methylpyrazol-4-yl)-7H-pyrrolo[2,3-d]pyrimidin-4-yl]-4-piperidyl]benzenesulfonamide], the IC50 in assay [1] and in assay [2] was 0.0001 to 1 µM each time.
`Cn1cc(-c2cc3c(N4CCC(NS(=O)(=O)c5ccc(Cl)cc5)CC4)ncnc3[nH]2)cn1` [P-0491, 4-chloro-N-[1-[6-(1-methylpyrazol-4-yl)-7H-pyrrolo[2,3-d]pyrimidin-4-yl]-4-piperidyl]benzenesulfonamide]: the IC50 in assay [1] lay within 1 to 10 µM; in assay [2], 0.0001 to 1 µM.
Regarding `Cc1nc(-c2cccc(NC(=O)NC3CCN(c4ncnc5[nH]ccc45)CC3)c2)no1` [P-0507, 1-[3-(5-methyl-1,2,4-oxadiazol-3-yl)phenyl]-3-[1-(7H-pyrrolo[2,3-d]pyrimidin-4-yl)-4-piperidyl]urea], the IC50 in assay [1] and in assay [2] was 10 to 200 µM each time.
For `O=C(Nc1cccnc1)NC1CCN(c2ncnc3[nH]ccc23)CC1` [P-0508, 1-(3-pyridyl)-3-[1-(7H-pyrrolo[2,3-d]pyrimidin-4-yl)-4-piperidyl]urea], the half-inhibitory concentration (IC50) in assay [1] and in assay [2] was 10 to 200 µM throughout.
For the compound `O=C(NCc1cccc(F)c1)NC1CCN(c2ncnc3[nH]ccc23)CC1` [P-0510, 1-[(3-fluorophenyl)methyl]-3-[1-(7H-pyrrolo[2,3-d]pyrimidin-4-yl)-4-piperidyl]urea], the IC50 in assay [1] and in assay [2] was 10 to 200 µM in each case.
For `O=C(Nc1cccc(C(F)(F)F)c1)NC1CCN(c2ncnc3[nH]ccc23)CC1` [P-0515, 1-[1-(7H-pyrrolo[2,3-d]pyrimidin-4-yl)-4-piperidyl]-3-[3-(trifluoromethyl)phenyl]urea], the IC50 in assay [1] is 1 to 10 µM; in assay [2], 10 to 200 µM.
The like results for `CCc1ccc(S(=O)(=O)NC2CCN(c3ncnc4[nH]ccc34)CC2)cc1` [P-0525, 4-ethyl-N-[1-(7H-pyrrolo[2,3-d]pyrimidin-4-yl)-4-piperidyl]benzenesulfonamide] were, in that order, 10 to 200 µM and 10 to 200 µM.
Take `O=S(=O)(NC1CCN(c2ncnc3[nH]ccc23)CC1)c1cc(F)ccc1F` [P-0539, 2,5-difluoro-N-[1-(7H-pyrrolo[2,3-d]pyrimidin-4-yl)-4-piperidyl]benzenesulfonamide]: the IC50 in assay [1] and in assay [2] was 10 to 200 µM in each case.
For the compound `COc1ccc(S(=O)(=O)NC2CCN(c3ncnc4[nH]ccc34)CC2)cc1` [P-0540, 4-methoxy-N-[1-(7H-pyrrolo[2,3-d]pyrimidin-4-yl)-4-piperidyl]benzenesulfonamide], the IC50 in assay [1] and in assay [2] was 10 to 200 µM in each case.
As for `NC1CCN(c2ncnc3[nH]ccc23)CC1` [P-0541, 1-(7H-pyrrolo[2,3-d]pyrimidin-4-yl)piperidin-4-amine], the IC50 in assay [1] fell in the range of 10 to 200 µM; in assay [2], 1 to 10 µM.
The like results for `COc1ccc(NC(=O)NC2CCN(c3ncnc4[nH]ccc34)CC2)cc1` [P-0543, 1-(4-methoxyphenyl)-3-[1-(7H-pyrrolo[2,3-d]pyrimidin-4-yl)-4-piperidyl]urea] were, in that order, 10 to 200 µM and 10 to 200 µM.
`C[C@H](NC(=O)N1CCN(c2ncnc3cc(C4=CCN(C(=O)C5CC5)CC4)sc23)CC1(C)C)c1cccc(Cl)c1` [P-0552, N-[(1S)-1-(3-chlorophenyl)ethyl]-4-[6-[1-(cyclopropanecarbonyl)-3,6-dihydro-2H-pyridin-4-yl]thieno[3,2-d]pyrimidin-4-yl]-2,2-dimethyl-piperazine-1-carboxamide]: the IC50 in assay [1] and in assay [2] was 0.0001 to 1 µM in each case.
For `C[C@H](NC(=O)N1CCN(c2ncnc3cc(C4=CCN(S(C)(=O)=O)CC4)sc23)CC1(C)C)c1cccc(Cl)c1` [P-0553, N-[(1S)-1-(3-chlorophenyl)ethyl]-2,2-dimethyl-4-[6-(1-methylsulfonyl-3,6-dihydro-2H-pyridin-4-yl)thieno[3,2-d]pyrimidin-4-yl]piperazine-1-carboxamide], the values for the IC50 in assay [1] and in assay [2] were 1 to 10 µM and 0.0001 to 1 µM, respectively.
For `O=C(N1CC=C(c2cc3ncnc(-c4ccc(NS(=O)(=O)C5CC5)cc4)c3s2)CC1)N1CCOCC1` [P-0554, N-[4-[6-[1-(morpholine-4-carbonyl)-3,6-dihydro-2H-pyridin-4-yl]thieno[3,2-d]pyrimidin-4-yl]phenyl]cyclopropanesulfonamide], in that order: 0.0001 to 1 µM and 0.0001 to 1 µM.
For `CS(=O)(=O)Nc1ccc(-c2ncnc3cc(C4=CCN(C(=O)N5CCOCC5)CC4)sc23)cc1` [P-0555, N-[4-[6-[1-(morpholine-4-carbonyl)-3,6-dihydro-2H-pyridin-4-yl]thieno[3,2-d]pyrimidin-4-yl]phenyl]methanesulfonamide], in that order: 0.0001 to 1 µM and 0.0001 to 1 µM.
The like results for `COc1cc(-c2cc3ncnc(N4CCN(C(=O)N[C@@H](C)c5cccc(Cl)c5)C(C)(C)C4)c3s2)ccn1` [P-0556, N-[(1S)-1-(3-chlorophenyl)ethyl]-4-[6-(2-methoxy-4-pyridyl)thieno[3,2-d]pyrimidin-4-yl]-2,2-dimethyl-piperazine-1-carboxamide] were, in that order, 1 to 10 µM and 0.0001 to 1 µM.
Consider `Cc1nc(C)c(-c2cc3ncnc(N4CCN(C(=O)N[C@@H](C)c5cccc(Cl)c5)C(C)(C)C4)c3s2)s1` [P-0557, N-[(1S)-1-(3-chlorophenyl)ethyl]-4-[6-(2,4-dimethylthiazol-5-yl)thieno[3,2-d]pyrimidin-4-yl]-2,2-dimethyl-piperazine-1-carboxamide], for which the IC50 was 10 to 200 µM in assay [1] and 0.0001 to 1 µM in assay [2].
The like results for `C[C@H](NC(=O)N1CCN(c2ncnc3cc(N4CCOCC4)sc23)CC1(C)C)c1cccc(Cl)c1` [P-0558, N-[(1S)-1-(3-chlorophenyl)ethyl]-2,2-dimethyl-4-(6-morpholinothieno[3,2-d]pyrimidin-4-yl)piperazine-1-carboxamide] were, in that order, 1 to 10 µM and 0.0001 to 1 µM.
The like results for `CC(=N)Nc1ccc(-c2ncnc3cc(C4=CCN(C(=O)N5CCOCC5)CC4)sc23)cc1` [P-0559, N-[4-[6-[1-(morpholine-4-carbonyl)-3,6-dihydro-2H-pyridin-4-yl]thieno[3,2-d]pyrimidin-4-yl]phenyl]acetamidine] were, in that order, 10 to 200 µM and 0.0001 to 1 µM.
For `COc1cccc([C@H](C)NC(=O)N2CCN(c3ncnc4cc(N5CCOCC5)sc34)CC2(C)C)c1` [P-0560, N-[(1S)-1-(3-methoxyphenyl)ethyl]-2,2-dimethyl-4-(6-morpholinothieno[3,2-d]pyrimidin-4-yl)piperazine-1-carboxamide], in that order: 1 to 10 µM and 0.0001 to 1 µM.
Turning to `O=C(N1CC=C(c2cc3ncnc(-c4ccc(NS(=O)(=O)c5ccc(F)cc5)cc4)c3s2)CC1)N1CCOCC1` [P-0561, 4-fluoro-N-[4-[6-[1-(morpholine-4-carbonyl)-3,6-dihydro-2H-pyridin-4-yl]thieno[3,2-d]pyrimidin-4-yl]phenyl]benzenesulfonamide], the IC50 in assay [1] and in assay [2] was 0.0001 to 1 µM throughout.
Consider `Cc1nn(C)cc1-c1cc2ncnc(N3CCN(C(=O)N[C@@H](C)c4cccc(Cl)c4)C(C)(C)C3)c2s1` [P-0564, N-[(1S)-1-(3-chlorophenyl)ethyl]-4-[6-(1,3-dimethylpyrazol-4-yl)thieno[3,2-d]pyrimidin-4-yl]-2,2-dimethyl-piperazine-1-carboxamide], for which the results for the half-inhibitory concentration (IC50) in assay [1] and in assay [2] were 1 to 10 µM and 0.0001 to 1 µM, respectively.
The like results for `COc1cccc([C@H](C)NC(=O)N2CC3CCC2CN3c2ncnc3cc(-c4ccc(F)cc4)sc23)c1` (stereo partly drawn) [P-0566, 5-[6-(4-fluorophenyl)thieno[3,2-d]pyrimidin-4-yl]-N-[(1S)-1-(3-methoxyphenyl)ethyl]-2,5-diazabicyclo[2.2.2]octane-2-carboxamide] were, in that order, 10 to 200 µM and 1 to 10 µM.
For `COc1cccc([C@H](C)NC(=O)N2C3CCC2CN(c2ncnc4cc(-c5ccc(F)cc5)sc24)C3)c1` [P-0567, 3-[6-(4-fluorophenyl)thieno[3,2-d]pyrimidin-4-yl]-N-[(1S)-1-(3-methoxyphenyl)ethyl]-3,8-diazabicyclo[3.2.1]octane-8-carboxamide], in that order: 10 to 200 µM and 0.0001 to 1 µM.
For `CS(=O)(=O)N1CC=C(c2cc3ncnc(N4CCN(C(=O)NCc5ccc(F)cc5)CC4)c3s2)CC1` [P-0568, N-[(4-fluorophenyl)methyl]-4-[6-(1-methylsulfonyl-3,6-dihydro-2H-pyridin-4-yl)thieno[3,2-d]pyrimidin-4-yl]piperazine-1-carboxamide], in that order: 1 to 10 µM and 0.0001 to 1 µM.

What is called IC50 is the concentration that inhibits the measured activity by half.
